Results on 2 molecules are retold here after paper PMC5377379, “Early neurotrophic pharmacotherapy rescues developmental delay and Alzheimer’s-like memory deficits in the Ts65Dn mouse model of Down syndrome” (Scientific Reports, 2017).

Where a SMILES comes first, the peptide text is derived from it. The star is where a group is joined. X1 = NC(=O)C12CC3CC(CC(N*)(C3)C1)C2 Bounds are passed on as bounds.

In one series the test system is 3xTg-AD mice. To be noted: concluded from hippocampal pSTAT3 decrease after oral P021 in diet; cited from earlier work.
The subject of series [1] is STAT3 phosphorylation at Tyr705. Briefly: Western blot of pSTAT3 (Tyr705) in hippocampus of 3-week-old offspring (placental/lactational and BBB delivery). In kind it is in vivo, WT and Ts65Dn mice. To be noted: inferred from reduced hippocampal pSTAT3 in 3-week-old offspring; 200 nmoles/g diet to dams E8-PND21. Here is the method: The studies regarding the plasma stability and stability in gastric and intestinal juices of P021 were done at EVER NeuroPharma GmbH, Unterach, Austria[67]. Briefly, the compound P021 was found stable both in artificial gastric juice (>90%) and in artificial intestinal juice (>95%) as analyzed up to 30 min and 2 hours, respectively. […] It is also worth mentioning that young mice may have consumed some P021 diet directly as young mice start consuming solid food by ~PND16.
After completion of behavioral testing, the 3-week-old mice from the neurobehavioral development study and the ~7-month-old mice from the longitudinal study were anesthetized with an overdose of sodium pentobarbital (125 mg/kg) and were transcardially perfused with 0.1 M phosphate buffered saline (PBS). The mouse brains were extracted immediately after perfusion. The left hemisphere of the brain was dissected into hippocampus, cerebral cortex, cerebellum, and brain stem, immediately frozen on dry ice, and then stored at −80 °C till further processing for biochemical analysis.
The hippocampus from left cerebral hemisphere stored at −80 °C from each mouse was homogenized in a Teflon-glass homogenizer to obtain 10% (w/v) homogenate. […] The blots were developed and quantified as described before. For quantification of different protein levels, each immunoreactive band was normalized to its corresponding GAPDH band.
A general note: A western blot detects proteins with antibodies after separation by electrophoresis.

The conditions of series [2]: cited from earlier work. The source says:
The compound P021 exerts a neurogenic and neurotrophic effect by inhibiting leukemia inhibitory factor (LIF) signaling pathway and enhancing brain derived neurotrophic factor (BDNF) expression by increasing its transcription.

A further series concerns Ts65Dn mice. The series is described as follows: General examination and monthly body weight, adult mice and mothers. It is filed as in vivo. The source says: We treated 2–3-month-old pregnant Ts65Dn (Dn) and wild-type (WT) mothers from day 8 (E8) of pregnancy till the weaning of the pups on PND21 with compound P021 (P) in the feed, or as control with vehicle (V) feed (Fig. 1). The offsprings also had access to the P021 or vehicle diet as per mother’s group till PND21. The offsprings from Ts65Dn mothers were genotyped to identify Ts65Dn and WT pups. There were 6 study groups as follows: WT offsprings of WT mothers on vehicle diet (WT-V-WT), WT offsprings of WT mothers on P021 diet (WT-P-WT), WT offsprings of Ts65Dn mothers on vehicle diet (Dn-V-WT), WT offsprings of Ts65Dn mothers on P021 diet (Dn-P-WT), Ts65Dn offsprings of Ts65Dn mothers on vehicle diet (Dn-V-Dn), and Ts65Dn offsprings of Ts65Dn mothers on P021 diet (Dn-P-Dn). In the first phase of the study (Fig. 1b), the newborn pups were evaluated for neurobehavioral development starting on PND1 and carried out until PND21 (or until the appearance of developmental milestone/reflex). After completion of behavioral testing, the 3-week-old mice were sacrificed and brain tissue was collected. The neurobehavioral development component of the study was performed on WT-V-WT (n = 11), WT-P-WT (n = 10), Dn-V-WT (n = 10), Dn-P-WT (n = 9), Dn-V-Dn (n = 11), and Dn-P-Dn (n = 12) mice. In the second phase of the study (Fig. 1c), after prenatal to early postnatal treatment, the offsprings were allowed to grow till 5 months of age, and then general behavioral evaluation and cognitive testing were performed. After weaning, the offsprings received regular mouse chow. After completion of behavioral testing, ~7-month-old animals were sacrificed and brain tissue was collected for biochemical analyses. This longitudinal component of the study was carried out on WT-V-WT (n = 10), WT-P-WT (n = 12), Dn-V-WT (n = 12), Dn-P-WT (n = 11), Dn-V-Dn (n = 13), and Dn-P-Dn (n = 12) mice.
For both the neurobehavioral development in mouse pups and the longitudinal adult mice studies, the physical state and condition of the animals (both mothers and offsprings) were carefully examined throughout the respective study duration. Body weight of mouse pups was recorded daily from PND1 to PND21. Body weight of adult mice was evaluated monthly. Adult mice were not subjected to any behavioral testing till they were ~5 months of age.

For series [3] the following is noted: done at EVER NeuroPharma GmbH, cited from earlier work. Here is the method: The studies regarding the plasma stability and stability in gastric and intestinal juices of P021 were done at EVER NeuroPharma GmbH, Unterach, Austria[67]. Briefly, the compound P021 was found stable both in artificial gastric juice (>90%) and in artificial intestinal juice (>95%) as analyzed up to 30 min and 2 hours, respectively.

For series [4] the following is noted: adult C57Bl/6 mice, commercial service APREDICA; cited from earlier work.
For series [5] the following is noted: administration in clinical trials, humans; cited from earlier work. The source says: Overall, we observed a significant group effect in body weight [Fig. 7a; 2-way ANOVA, F(5,410) = 14.28, p < 0.0001] and its change with age [F(4,410) = 100.25, p < 0.0001], however, group × age interaction was not significant [F(20,410) = 0.10, p = 1.0]. Bonferroni’s p ...

Take `CC(=O)N[C@@H](CC(=O)O)C(=O)NCC(=O)NCC(=O)N[C@@H](CC(C)C)C(=O)NC12CC3CC(C1)CC(C(N)=O)(C3)C2` [Peptide P021] (Ac-DGGL-X1): the oral bioavailability entry in the series on 3xTg-AD mice is “orally bioavailable”. The “placental/lactational delivery to offspring brain” value in series [1] was “delivered across placental barrier during pregnancy and via breast milk during lactation”. In addition, in series [2], the water solubility result is “water-soluble”. Moreover, the “general behavioral profile of the adult mice” value in the series on Ts65Dn mice (adult offspring treated E8-PND21) is on record as “did not affect the general behavioral profile”. For the same molecule, in the series with Ts65Dn mice (monthly evaluation, Dn-V-Dn vs. Dn-P-Dn, p > 0.05, treated E8-PND21), the “body weight, adult Ts65Dn mice” value was “did not induce any significant changes in body weight”. Besides, in the series on Ts65Dn mice (monthly evaluation, WT-V-WT vs. WT-P-WT and Dn-V-WT vs. Dn-P-WT, p > 0.05), the “body weight, adult WT mice” value is recorded as “did not produce any alterations in body weight”. For the same molecule, in the series on Ts65Dn mice (pregnant mothers on P021 diet, evaluated up to 2-3 months after weaning the pups), the “general physical condition of treated mothers” value was “did not show any treatment-induced alteration in their general physical condition”. For the same molecule, the “stable in artificial gastric juice” value in series [3] (analyzed up to 30 min) is given as greater than 90%. The “stable in artificial intestinal juice” value in series [3] (analyzed up to 2 hours) was greater than 95%. In addition, the BBB permeability result in series [4] is “BBB-permeable”.

B1: full-length human recombinant CNTF protein: full-length human recombinant ciliary neurotrophic factor protein given in clinical trials (protein, UniProt P26441 1-200, looked up)
chain: MAFTEHSPLTPHRRDLCSRSIWLARKIRSDLTALTESYVKHQGLNKNINLDSADGMPVASTDQWSELTEAERLQENLQAYRTFHVLLARLLEDQQVHFTPTEGDFHQAIHTLLLQVAAFAYQIEELMILLEYKIPRNEADGMPINVGDGGLFEKKLWGLKVLQELSQWTVRSIHDLRFISSHQTGIPARGSHYIANNKKM
modifications: full-length
Take B1: the “adverse effects in clinical trials” value in series [5] is “anorexia, skeletal muscle loss, hyperalgesia, severe cramps, and muscle pain”.
